These results are taken from PubChem BioAssay (NCI).

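1) Cells in 96-well plates. 2) Compound, 48 h, 5 concentrations. 3) Linear interpolation between surrounding doses. 4) Unreached endpoint = highest concentration. TGI: concentration producing complete growth inhibition.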

Some test systems named below: BT-549 breast; DU-145 prostate; HCT-116 colon; HL-60(TB) leukemia; M14 melanoma; MCF7 breast; MDA-MB-231 breast; NCI-H460 lung; NCI-H522 lung; OVCAR-5 ovarian; PC-3 prostate; RXF 393 renal; SK-MEL-2 melanoma; SK-MEL-28 melanoma; SR leukemia; RPMI-8226 leukemia.
Holding throughout (assay): NCI tumour cell line growth inhibition, 48 h

As for `COc1ccc(Cn2c3c(cc(OC(C)=O)c2=O)Cc2ccccc2-3)cc1`, the TGI with BT-549 breast is 35.1 µM; with DU-145 prostate, more than 50 µM; in the assay with HCT-116 colon, 13.2 µM; in the assay on HL-60(TB) leukemia, 20.6 µM; with M14 melanoma it was 17.9 µM; with MCF7 breast, more than 50 µM. Also, the TGI in the assay with MDA-MB-231 breast is more than 50 µM; in the assay on NCI-H460 lung it was 15 µM; in the assay with NCI-H522 lung it was 15.1 µM; in the assay on OVCAR-5 ovarian it was more than 50 µM; in the assay on PC-3 prostate, 30.2 µM; in the assay on RXF 393 renal it was 42.6 µM. The TGI with SK-MEL-2 melanoma is 23.9 µM; in the assay with SK-MEL-28 melanoma, more than 50 µM; with SR leukemia it was 28 µM.

Regarding `COc1ccc(Cn2c(=O)c(OC)c(C)c3cc4ccccc4cc32)cc1`, the TGI in the assay with BT-549 breast is more than 100 µM; with DU-145 prostate, more than 100 µM; in the assay with HCT-116 colon, 43 µM; with HL-60(TB) leukemia it was 46 µM; in the assay with M14 melanoma, more than 100 µM; in the assay on MCF7 breast, more than 100 µM. Besides, the TGI with MDA-MB-231 breast was more than 100 µM; with NCI-H460 lung, 36.8 µM; in the assay with NCI-H522 lung, 59.6 µM; with OVCAR-5 ovarian it was more than 100 µM; in the assay with PC-3 prostate it was 49.2 µM; in the assay with RXF 393 renal, more than 100 µM. Further, the figures for the TGI with SK-MEL-2 melanoma, in the assay on SK-MEL-28 melanoma and in the assay on SR leukemia were 52.5 µM, more than 100 µM and 57.5 µM, respectively.

Turning to `O=C1CS(=O)(=O)C(c2cccc(Oc3ccccc3)c2)N1c1ccc(Cl)cc1` (stereo unspecified), the TGI with BT-549 breast was 90.1 µM; with DU-145 prostate it was more than 100 µM; in the assay with HCT-116 colon, 22.6 µM; with HL-60(TB) leukemia, more than 100 µM; with M14 melanoma, 76.2 µM; with MCF7 breast, 31.9 µM. The TGI in the assay with MDA-MB-231 breast is more than 100 µM; in the assay with NCI-H460 lung, 35.8 µM; with NCI-H522 lung, 68.9 µM; in the assay on OVCAR-5 ovarian it was more than 100 µM; in the assay on PC-3 prostate, 84.5 µM; in the assay with RXF 393 renal, 43 µM. Also, the TGI in the assay with SK-MEL-2 melanoma is 31.9 µM; in the assay with SK-MEL-28 melanoma, more than 100 µM; in the assay on SR leukemia, 45.4 µM.

With `CC(C)(C)C1CCC(=O)/C(=C/CC2CC(=O)N(c3ccccc3)C(=O)C2)C1` (stereo unspecified), the TGI in the assay with BT-549 breast was 44.5 µM; in the assay with DU-145 prostate it was 40 µM; in the assay with HCT-116 colon, 29.3 µM; in the assay with HL-60(TB) leukemia it was 94.1 µM; with MCF7 breast, 49.5 µM; with MDA-MB-231 breast, more than 100 µM. In addition, the TGI in the assay on NCI-H460 lung was 30.2 µM; in the assay with NCI-H522 lung, 39.2 µM; in the assay with OVCAR-5 ovarian it was 41.6 µM; in the assay on PC-3 prostate, 70.2 µM; with RPMI-8226 leukemia, 49.1 µM; with SK-MEL-2 melanoma, 42.9 µM. Moreover, the TGI in the assay with SK-MEL-28 melanoma worked out at 47.4 µM; with SR leukemia, 41.5 µM.

Regarding `Cc1ccc(C2(O)CSC(=NC34CC5CC(CC(C5)C3)C4)N2C(P(=O)(O)O)P(=O)(O)O)cc1` (stereo unspecified), the TGI was more than 100 µM in the assay on BT-549 breast; more than 100 µM in the assay on DU-145 prostate; 67.5 µM in the assay with HCT-116 colon; more than 100 µM in the assay with HL-60(TB) leukemia; more than 100 µM in the assay with M14 melanoma; more than 100 µM in the assay on MCF7 breast. Further, the TGI in the assay on MDA-MB-231 breast, with NCI-H460 lung, in the assay with OVCAR-5 ovarian, in the assay on PC-3 prostate, in the assay with RPMI-8226 leukemia and with SK-MEL-2 melanoma was more than 100 µM throughout. Moreover, the TGI with SK-MEL-28 melanoma and in the assay on SR leukemia was more than 100 µM in each case.

As for `CN(/N=C/c1ccc(C(=O)O)cc1)C1=NCCCCN1`, the TGI in the assay on BT-549 breast, with DU-145 prostate, in the assay on HCT-116 colon, in the assay with HL-60(TB) leukemia, in the assay with M14 melanoma and in the assay with MCF7 breast was more than 100 µM throughout. Also, the TGI in the assay with MDA-MB-231 breast, in the assay with NCI-H460 lung, with NCI-H522 lung, in the assay on OVCAR-5 ovarian, with PC-3 prostate and with RPMI-8226 leukemia was more than 100 µM in each case. Besides, the TGI in the assay on SK-MEL-28 melanoma and in the assay with SR leukemia was more than 100 µM in each case.

For the compound `CCOC(=O)c1ccc(N=C/C=C(\Nc2ccc(C(=O)OCC)cc2)C23CC4CC(CC(C4)C2)C3)cc1`, the TGI in the assay with BT-549 breast, in the assay on DU-145 prostate, with HCT-116 colon, with HL-60(TB) leukemia, in the assay on M14 melanoma and with MCF7 breast was more than 100 µM each time. Besides, the TGI with MDA-MB-231 breast, in the assay on NCI-H460 lung, in the assay on NCI-H522 lung, with OVCAR-5 ovarian, in the assay with PC-3 prostate and with RXF 393 renal was more than 100 µM throughout. Also, the TGI in the assay on SK-MEL-2 melanoma, with SK-MEL-28 melanoma and with SR leukemia was more than 100 µM in each case.

For `O=C(O)CO[C@@]12C#C/C=C\C#C[C@@H]3N(C(=O)Oc4ccccc4)c4ccccc4[C@]14O[C@@]34CCC2`, the TGI is 69.9 µM in the assay on BT-549 breast; more than 100 µM in the assay with DU-145 prostate; more than 100 µM with HCT-116 colon; more than 100 µM in the assay on HL-60(TB) leukemia; more than 100 µM with M14 melanoma; 46.7 µM in the assay on MCF7 breast. Also, the TGI in the assay on MDA-MB-231 breast was 26.6 µM; with NCI-H460 lung, more than 100 µM; in the assay on NCI-H522 lung, 85.9 µM; in the assay with PC-3 prostate, more than 100 µM; in the assay on RPMI-8226 leukemia, more than 100 µM; in the assay with SK-MEL-2 melanoma it was 32.2 µM. In addition, the TGI in the assay with SK-MEL-28 melanoma and in the assay on SR leukemia was more than 100 µM in each case.
